Experimental data as given in patent US12679878B2, “CRF2 receptor agonists and their use in therapy” (SANOFI, priority 2020, dated 2026).
Like-named read-outs stand apart in the source and are kept apart here. Each block holds one molecule with its values, some of them ahead of it. Starred links: 1 amine or outer side, 2 acyl side, 3 side chain; linkers in the order of their positions; H or OH if unused. Non-standard residues stand in square brackets, D forms with d. Residues, ends and D or L forms follow the SMILES beside them. Groups on a side chain read outwards from the residue. No end group written: not given here. *: point of attachment. C18 diacid = O=C(O)CCCCCCCCCCCCCCCCC(=O)*; γGlu = O=C(O)[C@H](CCC(=O)[*:2])N[*:1]; Palmitoyl = CCCCCCCCCCCCCCCC(=O)*; AEEA = NCCOCCOCC(=O)O; Aib = CC(C)(N)C(=O)O

Key:
human CRF2α receptor = target: T1, human CRF2α receptor (Homo sapiens, UniProt Q13324); assay: cAMP agonism at human CRF2 α receptor in TeloHEAC cells (Example 7); type: cell-based; settings: cAMP HTRF, TeloHEAC cells stably expressing human CRF2 α
T1 construct: expressed in transfected cells; host or cells: TeloHEAC
T1 sequence (Q13324 1-411): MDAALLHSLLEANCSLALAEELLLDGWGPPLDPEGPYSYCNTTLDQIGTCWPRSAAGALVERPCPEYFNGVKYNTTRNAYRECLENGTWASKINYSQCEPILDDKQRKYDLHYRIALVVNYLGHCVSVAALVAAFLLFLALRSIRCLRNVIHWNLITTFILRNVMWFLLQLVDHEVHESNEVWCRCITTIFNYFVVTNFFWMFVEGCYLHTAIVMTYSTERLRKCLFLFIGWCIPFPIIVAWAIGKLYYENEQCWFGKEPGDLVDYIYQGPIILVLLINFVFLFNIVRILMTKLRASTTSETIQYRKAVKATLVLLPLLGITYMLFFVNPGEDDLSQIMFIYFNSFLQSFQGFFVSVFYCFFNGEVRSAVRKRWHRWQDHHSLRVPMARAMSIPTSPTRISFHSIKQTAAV
Summary of the method: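 Cryopreserved cells are thawed, washed and resuspended in IBMX-containing (2 mM) HEPES-buffered HBSS with or without 0.1% HSA. Compound incubation runs 30 min at room temperature with 2000 cells per well, then cAMP is measured by time-resolved FRET. Potency is expressed as EC50, efficacy relative to urocortin 2 at 1000 nM.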

[1] = Physical stability, Thioflavin T fibrillation assay (Example 14); type: physicochemical; settings: Buffer B: 100 mM acetate buffer, pH 4.5, 2.7 mg/ml m-cresol; 3 mg/ml; 37° C. shaking
Summary of the method: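 Compounds at 3 mg/ml final in buffer were stressed at 37° C by repeated cycles of 10 s shaking at 960 rpm and 50 s rest. ThT fluorescence was read every 20 minutes in eight replicates, with fluorescence increase and lag time indicating fibrillation tendency.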

rat CRF2R α receptor = assay: cAMP agonism at rat CRF2R α receptor in A7R5 rat aortic smooth muscle cells (Example 8); type: cell-based; settings: cAMP HTRF, A7R5 rat aortic smooth muscle cell line, 0% HSA
Summary of the method: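 Thawed cryopreserved A7R5 cells in HBSS/20 mM HEPES (0 or 0.1% HSA) with 2 mM IBMX, 2000 cells/well, were exposed to compound for 30 min at room temperature. cAMP was read by HTRF (665/620 nm ratio) after 1 h with lysis reagents. Activity was normalised to 1000 nM urocortin 2 as 100%, and EC50 was taken as the concentration giving 50% of maximal activation.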

[2] = Physical stability, dynamic light scattering assay (Example 15); type: physicochemical; settings: Buffer B (100 mM acetate, pH 4.5, 2.7 mg/ml m-cresol)
Method: The physical stability of the compounds was also assessed using a dynamic light scattering assay.
In the present study, the physical stability of test compounds was assessed by determining the apparent hydrodynamic radius (Rh), the scattering intensity (I) and mass contribution (M) after synthesis (0 weeks) and after storage for 4 weeks at 40° C.
For each solution of test compound, the hydrodynamic radius Rh and the diffusion constant D (related via the Stokes-Einstein equation) were determined as an average over triplicates. Both parameters were determined at different compound concentrations (e.g., Rh1 and D1: 1 mg/ml and Rh5 and D5: 5 mg/ml, Rh10 and D10: 10 mg/mL) in the same buffer system. The difference of these parameters between low and high peptide concentration is a surrogate for the DLS interaction parameter kD. […] In addition, the hydrodynamic radius Rh and the corresponding Scattering Intensity (%) were determined as an average over duplicates. The target concentration was 300 μM. Therefore, solutions from solid samples were prepared in a buffer system with a concentration of 300 μM compound based on the previously determined % purity.
DLS measurements were performed on a DynaPro Plate Reader I (Wyatt Technology, Santa Barbara, CA, US) with an 837 nm laser light source at a scattering angle of 150°. The data were collected and processed with Dynamics V 7.8.1.3 or 7.8.2.18 software provided by Wyatt Technology.
Hydrodynamic radii were determined with non-negatively constrained least squares (NNLS) methods using DYNALS algorithms with regularization fit. […] Samples were tempered over 1 hour at +25° C. and visually inspected before analysis.
Samples were mixed with the aid of a pipet tip. Measurements were performed in 5 replicates. […] The plate was centrifuged for 2 minutes at 600 rcf. After removing the sealing, the samples were measured at +25° C.

[3] = Solubility in buffer systems by UPLC-UV (Example 13); type: physicochemical; settings: pH 4.5, Solubility in Buffer B [mg/ml]
Summary of the method: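 The supernatant was diluted 1:10 and quantified by UPLC-UV peak area against a reference standard curve, correcting for sequence-based extinction coefficients.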

[4] = target: human corticotropin-releasing factor 2α (CRF2α receptor) (human), Q13324; assay: cell-based or functional assay

- EC50 (human CRF2α receptor; 0% HSA, read-out: EC50 [nM], 0% HSA): 0.05 nM
- EC50 (human CRF2α receptor; 0.1% HSA, read-out: EC50 [nM], 0.1% HSA): 1.42 nM
- Increase in FI (fluorescence intensity) [1]: No
- Lag time [1]: >45 h
- EC50 (rat CRF2R α receptor): 0.2 nM
- Apparent Rh [nm] 0 weeks ([2]; 0 weeks): 3.63 ± 0.14 nm
- Scattering Intensity (I) [%] 0 weeks ([2]; 0 weeks): 100 ± 0%
- Apparent Rh [nm] 4 weeks ([2]; 4 weeks at 40° C.): 3.59 ± 0.04 nm
- Scattering Intensity (I) [%] 4 weeks ([2]; 4 weeks at 40° C.): 100 ± 0%
- solubility at 1 h [3]: > 8700 µg/mL
Molecule: CC[C@H](C)[C@H](N)C(=O)N[C@H](C(=O)N[C@@H](CC(C)C)C(=O)N[C@@H](CO)C(=O)N[C@@H](CC(C)C)C(=O)N[C@@H](CC(=O)O)C(=O)N[C@@H](C(=O)N1CCC[C@H]1C(=O)N[C@H](C(=O)N[C@@H](CCCCN)C(=O)N[C@@H](CC(C)C)C(=O)N[C@@H](CCCCNC(=O)COCCOCCNC(=O)COCCOCCNC(=O)CC[C@H](NC(=O)CCCCCCCCCCCCCCCCC(=O)O)C(=O)O)C(=O)N[C@@H](CCC(N)=O)C(=O)N[C@H](C(=O)N[C@@H](CC(C)C)C(=O)N[C@@H](CC(C)C)C(=O)N[C@@H](CCC(=O)O)C(=O)N[C@@H](CCC(N)=O)C(=O)N[C@@H](C)C(=O)N[C@@H](CCCNC(=N)N)C(=O)N[C@@H](CCC(N)=O)C(=O)N[C@@H](CCCCN)C(=O)NC(C)(C)C(=O)N[C@@H](CCC(N)=O)C(=O)N[C@@H](CCCNC(=N)N)C(=O)N[C@@H](CCC(=O)O)C(=O)N[C@@H](CCC(N)=O)C(=O)N[C@@H](C)C(=O)N[C@@H](CCC(=O)O)C(=O)N[C@@H](CCCCN)C(=O)N[C@@H](CC(N)=O)C(=O)N[C@@H](CCCCN)C(=O)N[C@@H](CCCNC(=N)N)C(=O)N[C@H](C(=O)N[C@@H](CC(C)C)C(=O)N[C@@H](CCC(=O)O)C(=O)N[C@@H](CCCNC(=N)N)C(=O)N[C@H](C(N)=O)C(C)C)[C@@H](C)CC)[C@@H](C)CC)[C@@H](C)CC)C(C)C)C(C)C [compound 142] (H-IVLSLD[dV]PIKLK([AEEA-AEEA-γGlu-C18 diacid])QILLEQARQK[Aib]QREQAEKNKRILERV-NH2; N-terminus assumed)

- EC50 [nM], 0% HSA (cAMP, HTRF) [4]: 0.09 nM
B1: peptide of SEQ ID NO: 206 (peptide)
peptide: IVLSLD[dV]PIKLK([AEEA-AEEA-γGlu-γGlu-Palmitoyl])QILLKQERQK[Aib]QREQAEKNKQILAQV-NH2
modifications: N-terminus assumed
SMILES: CCCCCCCCCCCCCCCC(=O)N[C@@H](CCC(=O)N[C@@H](CCC(=O)NCCOCCOCC(=O)NCCOCCOCC(=O)NCCCC[C@H](NC(=O)[C@H](CC(C)C)NC(=O)[C@H](CCCCN)NC(=O)[C@@H](NC(=O)[C@@H]1CCCN1C(=O)[C@H](NC(=O)[C@H](CC(=O)O)NC(=O)[C@H](CC(C)C)NC(=O)[C@H](CO)NC(=O)[C@H](CC(C)C)NC(=O)[C@@H](NC(=O)[C@@H](N)[C@@H](C)CC)C(C)C)C(C)C)[C@@H](C)CC)C(=O)N[C@@H](CCC(N)=O)C(=O)N[C@H](C(=O)N[C@@H](CC(C)C)C(=O)N[C@@H](CC(C)C)C(=O)N[C@@H](CCCCN)C(=O)N[C@@H](CCC(N)=O)C(=O)N[C@@H](CCC(=O)O)C(=O)N[C@@H](CCCNC(=N)N)C(=O)N[C@@H](CCC(N)=O)C(=O)N[C@@H](CCCCN)C(=O)NC(C)(C)C(=O)N[C@@H](CCC(N)=O)C(=O)N[C@@H](CCCNC(=N)N)C(=O)N[C@@H](CCC(=O)O)C(=O)N[C@@H](CCC(N)=O)C(=O)N[C@@H](C)C(=O)N[C@@H](CCC(=O)O)C(=O)N[C@@H](CCCCN)C(=O)N[C@@H](CC(N)=O)C(=O)N[C@@H](CCCCN)C(=O)N[C@@H](CCC(N)=O)C(=O)N[C@H](C(=O)N[C@@H](CC(C)C)C(=O)N[C@@H](C)C(=O)N[C@@H](CCC(N)=O)C(=O)N[C@H](C(N)=O)C(C)C)[C@@H](C)CC)[C@@H](C)CC)C(=O)O)C(=O)O

- EC50 [nM], 0% HSA (cAMP, HTRF) [4]: 0.32 nM
B2: peptide of SEQ ID NO: 205 (peptide)
peptide: IVLSLD[dV]PIKLK([AEEA-AEEA-γGlu-Palmitoyl])QILLKQERQK[Aib]QREQAEKNKQILAQV-NH2
modifications: N-terminus assumed
SMILES: CCCCCCCCCCCCCCCC(=O)N[C@@H](CCC(=O)NCCOCCOCC(=O)NCCOCCOCC(=O)NCCCC[C@H](NC(=O)[C@H](CC(C)C)NC(=O)[C@H](CCCCN)NC(=O)[C@@H](NC(=O)[C@@H]1CCCN1C(=O)[C@H](NC(=O)[C@H](CC(=O)O)NC(=O)[C@H](CC(C)C)NC(=O)[C@H](CO)NC(=O)[C@H](CC(C)C)NC(=O)[C@@H](NC(=O)[C@@H](N)[C@@H](C)CC)C(C)C)C(C)C)[C@@H](C)CC)C(=O)N[C@@H](CCC(N)=O)C(=O)N[C@H](C(=O)N[C@@H](CC(C)C)C(=O)N[C@@H](CC(C)C)C(=O)N[C@@H](CCCCN)C(=O)N[C@@H](CCC(N)=O)C(=O)N[C@@H](CCC(=O)O)C(=O)N[C@@H](CCCNC(=N)N)C(=O)N[C@@H](CCC(N)=O)C(=O)N[C@@H](CCCCN)C(=O)NC(C)(C)C(=O)N[C@@H](CCC(N)=O)C(=O)N[C@@H](CCCNC(=N)N)C(=O)N[C@@H](CCC(=O)O)C(=O)N[C@@H](CCC(N)=O)C(=O)N[C@@H](C)C(=O)N[C@@H](CCC(=O)O)C(=O)N[C@@H](CCCCN)C(=O)N[C@@H](CC(N)=O)C(=O)N[C@@H](CCCCN)C(=O)N[C@@H](CCC(N)=O)C(=O)N[C@H](C(=O)N[C@@H](CC(C)C)C(=O)N[C@@H](C)C(=O)N[C@@H](CCC(N)=O)C(=O)N[C@H](C(N)=O)C(C)C)[C@@H](C)CC)[C@@H](C)CC)C(=O)O

- EC50 [nM], 0% HSA (cAMP, HTRF) [4]: 2.98 nM
B3: peptide of SEQ ID NO: 210 (peptide)
peptide: IVLSLD[dV]PIKLK([AEEA-AEEA-γGlu-Palmitoyl])QILLKQERQKK[Aib]RQKAEKNKQILAQV-NH2
modifications: N-terminus assumed
SMILES: CCCCCCCCCCCCCCCC(=O)N[C@@H](CCC(=O)NCCOCCOCC(=O)NCCOCCOCC(=O)NCCCC[C@H](NC(=O)[C@H](CC(C)C)NC(=O)[C@H](CCCCN)NC(=O)[C@@H](NC(=O)[C@@H]1CCCN1C(=O)[C@H](NC(=O)[C@H](CC(=O)O)NC(=O)[C@H](CC(C)C)NC(=O)[C@H](CO)NC(=O)[C@H](CC(C)C)NC(=O)[C@@H](NC(=O)[C@@H](N)[C@@H](C)CC)C(C)C)C(C)C)[C@@H](C)CC)C(=O)N[C@@H](CCC(N)=O)C(=O)N[C@H](C(=O)N[C@@H](CC(C)C)C(=O)N[C@@H](CC(C)C)C(=O)N[C@@H](CCCCN)C(=O)N[C@@H](CCC(N)=O)C(=O)N[C@@H](CCC(=O)O)C(=O)N[C@@H](CCCNC(=N)N)C(=O)N[C@@H](CCC(N)=O)C(=O)N[C@@H](CCCCN)C(=O)N[C@@H](CCCCN)C(=O)NC(C)(C)C(=O)N[C@@H](CCCNC(=N)N)C(=O)N[C@@H](CCC(N)=O)C(=O)N[C@@H](CCCCN)C(=O)N[C@@H](C)C(=O)N[C@@H](CCC(=O)O)C(=O)N[C@@H](CCCCN)C(=O)N[C@@H](CC(N)=O)C(=O)N[C@@H](CCCCN)C(=O)N[C@@H](CCC(N)=O)C(=O)N[C@H](C(=O)N[C@@H](CC(C)C)C(=O)N[C@@H](C)C(=O)N[C@@H](CCC(N)=O)C(=O)N[C@H](C(N)=O)C(C)C)[C@@H](C)CC)[C@@H](C)CC)C(=O)O
